From article PMC3382824, “Antioxidative Characteristics of Anisomeles indica Extract and Inhibitory Effect of Ovatodiolide on Melanogenesis” (2012)

Molecular target: mushroom tyrosinase
Experiment: spectrophotometric dopachrome assay (L-DOPA substrate, […] nm)
Format: biochemical

IC50: 253 µM
SMILES: C=C1C(=O)OC2C=C(C)CC3C=C(CCC=C(C)CCC12)C(=O)O3 (stereo not shown) [ovatodiolide]
